Data taken from US10821195B2, “Compositions for therapeutics, targeted PET imaging and methods of their use” (Memorial Sloan Kettering Cancer Center, priority 2015, dated 2020).

Key:
[1] = Metal ion challenge of ^177Lu-HOPO and ^177Lu-DOTA; format: physicochemical; settings: 10-fold excess Cu^2+, Fe^3+, Ga^3+, Gd^3+, 6 d
Description: The incubations were performed at 37° C. in a thermomixer over the course of 6 d and analyzed by radioTLC using C-18 TLC plates developed with 50 mM DTPA at 1, 3, and 6 d.

Log D7.4 in octanol/PBS = format: physicochemical
[2] = Hydroxyapatite stability (competition); format: physicochemical; settings: after 6 d, 37° C.
Description: Additionally, each day the mixtures were vortexed to ensure proper mixing. At the respective time point, the aliquot was vortexed, centrifuged, vortexed, filtered (0.45 μm, 13 mm, nylon syringe filter, Fisher Scientific, Waltham, Mass.), and the filter washed with 1 mL of 50:50 EtOH in water. The filter (bound to hydroxyapatite), reaction tube, and filtrate (bound to the chelator) were counted separately on a gamma counter to determine the amount of activity in each.

[3] = Biodistribution of ^177Lu-HOPO and ^177Lu-DOTA in healthy female nude mice; format: in vivo
Description: Therefore, healthy female nude mice were injected with each of the complexes in order to determine their relative in vivo stabilities. The results are tabulated in Table 3 and are shown as graphs in FIG. 21A, FIG. 21B and FIG. 22.
Aliquots of the injectate (10 μL) were weighed and counted as standards with the tissues. The injection syringes were weighed pre- and post-injection to determine the weight of injectate and the activity according to the dose calibrator was measured before and after injection. All of the tissues were weighed and counted with the standards. The standards were used to obtain the counts/g injectate, the weights of the injectate were used to determine the total number of counts for the injected dose (ID), the counts of the tissue were used to get the % ID, and the weights of the tissues were used to obtain the % ID/g. Standard averaging and standard deviation calculations were applied.

O=C([O-])CN1CCN(CC(=O)[O-])CCN(CC(=O)[O-])CCN(CC(=O)[O-])CC1.[177Lu+3].[H+] [^177Lu-DOTA]
stability to transmetallation [1]: stable to transmetallation with all of the metals investigated in this study
Log D7.4 (Log D7.4 in octanol/PBS): −4.1±0.4
complex intact in hydroxyapatite competition [2]: > 98%
Blood/Bone ratio ([3]; 0.5 h): 5 ± 2
Kidney/Bone ratio ([3]; 0.5 h): 13 ± 7
L. Intestine/Bone ratio ([3]; 0.5 h): 0.6 ± 0.3
Liver/Bone ratio ([3]; 0.5 h): 2.2 ± 0.7
Muscle/Bone ratio ([3]; 0.5 h): 0.9 ± 0.5
S. Intestine/Bone ratio ([3]; 0.5 h): 1.6 ± 0.6
biodistribution Bladder ([3]; 0.5 h): 0.691 ± 0.116 % ID/g
biodistribution Blood ([3]; 0.5 h): 0.407 ± 0.179 % ID/g
biodistribution Bone ([3]; 0.5 h): 0.090 ± 0.026 % ID/g
biodistribution Heart ([3]; 0.5 h): 0.142 ± 0.069 % ID/g
biodistribution Kidneys ([3]; 0.5 h): 1.121 ± 0.490 % ID/g
biodistribution L. Intestine ([3]; 0.5 h): 0.056 ± 0.025 % ID/g
biodistribution Liver ([3]; 0.5 h): 0.199 ± 0.033 % ID/g
biodistribution Lungs ([3]; 0.5 h): 0.298 ± 0.131 % ID/g
biodistribution Muscle ([3]; 0.5 h): 0.085 ± 0.037 % ID/g
biodistribution Pancreas ([3]; 0.5 h): 0.080 ± 0.037 % ID/g
biodistribution S. Intestine ([3]; 0.5 h): 0.142 ± 0.038 % ID/g
biodistribution Spleen ([3]; 0.5 h): 0.103 ± 0.019 % ID/g
biodistribution Stomach ([3]; 0.5 h): 0.120 ± 0.035 % ID/g
Blood/Bone ratio ([3]; 1 h): 0.6 ± 0.4
Kidney/Bone ratio ([3]; 1 h): 30 ± 30
L. Intestine/Bone ratio ([3]; 1 h): 0.26 ± 0.19
Liver/Bone ratio ([3]; 1 h): 2.3 ± 1.7
Muscle/Bone ratio ([3]; 1 h): 0.4 ± 0.4
S. Intestine/Bone ratio ([3]; 1 h): 1.5 ± 1.1
biodistribution Bladder ([3]; 1 h): 0.2962 ± 0.1869 % ID/g
biodistribution Blood ([3]; 1 h): 0.0287 ± 0.0038 % ID/g
biodistribution Bone ([3]; 1 h): 0.0491 ± 0.0349 % ID/g
biodistribution Heart ([3]; 1 h): 0.0142 ± 0.0016 % ID/g
biodistribution Kidneys ([3]; 1 h): 1.4402 ± 1.2901 % ID/g
biodistribution L. Intestine ([3]; 1 h): 0.0129 ± 0.0015 % ID/g
biodistribution Liver ([3]; 1 h): 0.1121 ± 0.0174 % ID/g
biodistribution Lungs ([3]; 1 h): 0.0444 ± 0.0175 % ID/g
biodistribution Muscle ([3]; 1 h): 0.0219 ± 0.0154 % ID/g
biodistribution Pancreas ([3]; 1 h): 0.0143 ± 0.0050 % ID/g
biodistribution S. Intestine ([3]; 1 h): 0.0722 ± 0.0209 % ID/g
biodistribution Spleen ([3]; 1 h): 0.0410 ± 0.0100 % ID/g
biodistribution Stomach ([3]; 1 h): 0.0230 ± 0.0174 % ID/g
Blood/Bone ratio ([3]; 4 h): 0.18 ± 0.06
Kidney/Bone ratio ([3]; 4 h): 40 ± 30
L. Intestine/Bone ratio ([3]; 4 h): 6 ± 7
Liver/Bone ratio ([3]; 4 h): 10 ± 4
Muscle/Bone ratio ([3]; 4 h): 0.74 ± 0.15
S. Intestine/Bone ratio ([3]; 4 h): 3 ± 3
biodistribution Bladder ([3]; 4 h): 0.1088 ± 0.0148 % ID/g
biodistribution Blood ([3]; 4 h): 0.0011 ± 0.0003 % ID/g
biodistribution Bone ([3]; 4 h): 0.0060 ± 0.0007 % ID/g
biodistribution Heart ([3]; 4 h): 0.0052 ± 0.0016 % ID/g
biodistribution Kidneys ([3]; 4 h): 0.2398 ± 0.1571 % ID/g
biodistribution L. Intestine ([3]; 4 h): 0.0361 ± 0.0403 % ID/g
biodistribution Liver ([3]; 4 h): 0.0614 ± 0.0205 % ID/g
biodistribution Lungs ([3]; 4 h): 0.0080 ± 0.0044 % ID/g
biodistribution Muscle ([3]; 4 h): 0.0044 ± 0.0007 % ID/g
biodistribution Pancreas ([3]; 4 h): 0.0068 ± 0.0038 % ID/g
biodistribution S. Intestine ([3]; 4 h): 0.0209 ± 0.0180 % ID/g
biodistribution Spleen ([3]; 4 h): 0.0249 ± 0.0009 % ID/g
biodistribution Stomach ([3]; 4 h): 0.0038 ± 0.0026 % ID/g
Blood/Bone ratio ([3]; 1 d): 0.04 ± 0.02
Kidney/Bone ratio ([3]; 1 d): 46 ± 12
L. Intestine/Bone ratio ([3]; 1 d): 10 ± 7
Liver/Bone ratio ([3]; 1 d): 7.6 ± 1.6
Muscle/Bone ratio ([3]; 1 d): 0.6 ± 0.3
S. Intestine/Bone ratio ([3]; 1 d): 4 ± 3
biodistribution Bladder ([3]; 1 d): 0.1599 ± 0.07394 % ID/g
biodistribution Blood ([3]; 1 d): 0.0002 ± 0.00011 % ID/g
biodistribution Bone ([3]; 1 d): 0.00484 ± 0.00076 % ID/g
biodistribution Heart ([3]; 1 d): 0.0027 ± 0.00067 % ID/g
biodistribution Kidneys ([3]; 1 d): 0.2226 ± 0.04562 % ID/g
biodistribution L. Intestine ([3]; 1 d): 0.05022 ± 0.03098 % ID/g
biodistribution Liver ([3]; 1 d): 0.0369 ± 0.00538 % ID/g
biodistribution Lungs ([3]; 1 d): 0.0041 ± 0.00192 % ID/g
biodistribution Muscle ([3]; 1 d): 0.00281 ± 0.00151 % ID/g
biodistribution Pancreas ([3]; 1 d): 0.00337 ± 0.00062 % ID/g
biodistribution S. Intestine ([3]; 1 d): 0.02037 ± 0.01362 % ID/g
biodistribution Spleen ([3]; 1 d): 0.02143 ± 0.00625 % ID/g
biodistribution Stomach ([3]; 1 d): 0.00294 ± 0.00146 % ID/g
Blood/Bone ratio ([3]; 6 d): 0.007 ± 0.015
Carcass/Bone ratio ([3]; 6 d): 0.60 ± 0.17
Kidney/Bone ratio ([3]; 6 d): 10 ± 4
L. Intestine/Bone ratio ([3]; 6 d): 0.34 ± 0.10
Liver/Bone ratio ([3]; 6 d): 4.2 ± 1.2
Muscle/Bone ratio ([3]; 6 d): 0.16 ± 0.12
S. Intestine/Bone ratio ([3]; 6 d): 0.24 ± 0.07
biodistribution Bladder ([3]; 6 d): 0.1186 ± 0.05899 % ID/g
biodistribution Blood ([3]; 6 d): 0.00003 ± 0.00006 % ID/g
biodistribution Bone ([3]; 6 d): 0.00412 ± 0.00104 % ID/g
biodistribution Carcass ([3]; 6 d): 0.0025 ± 0.0003 % ID/g
biodistribution Heart ([3]; 6 d): 0.00158 ± 0.00062 % ID/g
biodistribution Kidneys ([3]; 6 d): 0.04311 ± 0.01362 % ID/g
biodistribution L. Intestine ([3]; 6 d): 0.0014 ± 0.00017 % ID/g
biodistribution Liver ([3]; 6 d): 0.01724 ± 0.00259 % ID/g
biodistribution Lungs ([3]; 6 d): 0.00142 ± 0.00102 % ID/g
biodistribution Muscle ([3]; 6 d): 0.00067 ± 0.00046 % ID/g
biodistribution Pancreas ([3]; 6 d): 0.0012 ± 0.00048 % ID/g
biodistribution S. Intestine ([3]; 6 d): 0.001 ± 0.00011 % ID/g
biodistribution Spleen ([3]; 6 d): 0.01313 ± 0.00408 % ID/g
biodistribution Stomach ([3]; 6 d): 0.00045 ± 0.00010 % ID/g
biodistribution Bone ([3]; 6 d, listed as Lu-DOTA): 0.004±0.001 % ID/g
residual activity in all tissues and carcass ([3]; 6 d p.i.): 0.092±0.009 % ID
residual activity in carcass ([3]; 6 d p.i.): 0.044±0.004 % ID
clearance pathway ([3]; healthy female nude mice): excreted mostly via the renal-urinary clearance pathway
